Data from ChEMBL document CHEMBL5252551, “A hit deconstruction approach for the discovery of fetal hemoglobin inducers” (Bioorg Med Chem Lett, 2018).
In brackets after ≈: the same amount, converted by molar mass. Values belong to the molecule of their own block, whether it stands above or below them. Activity calls are given as the source filed them. The calls are words filed in the database; no cut-off is given here.

How the values were obtained:
[1] = Induction of HbF production in human erythroid progenitor cells measured after 3 days by ELISA assay; assay type: functional, cell-based; settings: Erythroid progenitor cell, 72 h
[2] = Solubility of the compound in FaSSIF; assay type: ADME
[3] = Solubility of the compound in simulated intestinal fluid measured after 4 hrs; assay type: ADME
[4] = Genotoxicity in Salmonella typhimurium in absence of S9 fraction by Ames test; assay type: toxicity; settings: salmonella enterica subsp. enterica serovar typhimurium
[5] = Genotoxicity in Salmonella typhimurium in presence of S9 fraction by Ames test; assay type: toxicity, subcellular; settings: salmonella enterica subsp. enterica serovar typhimurium
[6] = Half life in Sprague-Dawley rat at 5 mg/kg,po; assay type: ADME, organism-based; settings: in vivo
[7] = Oral bioavailability in Sprague-Dawley rat at 5 mg/kg; assay type: ADME, organism-based; settings: in vivo
[8] = Cmax in Sprague-Dawley rat at 10 mg/kg,po; assay type: ADME, organism-based; parameters: dose 10 mg/kg, route po; settings: in vivo
[9] = Dose normalized AUC in Sprague-Dawley rat at 10 mg/kg,po; assay type: ADME, organism-based; settings: in vivo
[10] = Cmax in Sprague-Dawley rat at 5 mg/kg,po; assay type: ADME, organism-based; parameters: dose 5 mg/kg, route po; settings: in vivo
[11] = Half life in Sprague-Dawley rat at 10 mg/kg,po; assay type: ADME, organism-based; settings: in vivo
[12] = Oral bioavailability in Sprague-Dawley rat at 10 mg/kg; assay type: ADME, organism-based; settings: in vivo
[13] = Dose normalized AUC in Sprague-Dawley rat at 5 mg/kg,po; assay type: ADME, organism-based; settings: in vivo
[14] = (§1) Induction of HbF production in human erythroid progenitor cells at upto 33 uM measured after 3 days by ELISA assay; assay type: functional, cell-based; settings: Erythroid progenitor cell, 72 h
[15] = Oral bioavailability in Sprague-Dawley rat at 100 mg/kg; assay type: ADME, organism-based; settings: in vivo
[16] = Cmax in Sprague-Dawley rat at 100 mg/kg,po; assay type: ADME, organism-based; parameters: dose 100 mg/kg, route po; settings: in vivo
[17] = Half life in Sprague-Dawley rat at 100 mg/kg,po; assay type: ADME, organism-based; settings: in vivo
[18] = Dose normalized AUC in Sprague-Dawley rat at 100 mg/kg,po; assay type: ADME, organism-based; settings: in vivo
[19] = test system: Erythroid progenitor cell; assay: as §1; assay type: functional, cell-based; settings: time 3.0 day
[20] = Dose normalized AUC in Sprague-Dawley rat at 28 mg/kg,po; assay type: ADME, organism-based; settings: in vivo
[21] = Half life in Sprague-Dawley rat at 28 mg/kg,po; assay type: ADME, organism-based; settings: in vivo
[22] = Oral bioavailability in Sprague-Dawley rat at 28 mg/kg; assay type: ADME, organism-based; settings: in vivo
[23] = Cmax in Sprague-Dawley rat at 28 mg/kg,po; assay type: ADME, organism-based; parameters: dose 28 mg/kg, route po; settings: in vivo
[24] = Cmax in Sprague-Dawley rat at 1 mg/kg,iv; assay type: ADME, organism-based; parameters: dose 1 mg/kg, route iv; settings: in vivo
[25] = Half life in Sprague-Dawley rat at 1 mg/kg, iv; assay type: ADME, organism-based; settings: in vivo
[26] = Dose normalized AUC in Sprague-Dawley rat at 1 mg/kg, iv; assay type: ADME, organism-based; settings: in vivo
[27] = Volume of distribution at steady state in Sprague-Dawley rat at 5 mg/kg,po or 1 mg/kg,iv; assay type: ADME, organism-based; settings: in vivo

Compound: O=C(Nc1cccn(Cc2ccccc2)c1=O)c1ccc2c(c1)B(O)OC2
- solubility [2]: 3 µg/mL (≈ 0.00833 mM)
- solubility at 4 h [3]: 3 µg/mL (≈ 0.00833 mM)
- Activity [4]: Non-Toxic
- EC50 ([1]; read-out: pEC50 (converted)): 1020 nM
- Activity [5]: Non-Toxic

Compound: O=C(Nc1cccn(Cc2ccccc2)c1=O)c1cc(F)c2c(c1)B(O)OC2
- solubility [2]: 8 µg/mL (≈ 0.0212 mM)
- EC50 ([1]; read-out: pEC50 (converted)): 2140 nM

Compound: OB1OCc2ccc(Oc3nnn[nH]3)cc21
- solubility [2]: > 1000 µg/mL
- EC50 ([1]; read-out: pEC50 (converted)): 129 nM

Compound: O=C(Cc1ccc2c(c1)B(O)OC2)NS(=O)(=O)C1CC1
- solubility [2]: 700 µg/mL (≈ 2.37 mM)
- EC50 ([1]; read-out: pEC50 (converted)): 18.2 nM

Compound: O=C(CNC(=O)c1ccc2c(c1)B(O)OC2)NCc1ccccc1
- EC50 ([1]; read-out: pEC50 (converted)): > 31600 nM

Compound: NCc1ccc(S(=O)(=O)NC(=O)CCc2ccc3c(c2)B(O)OC3)cc1
- EC50 [14]: 6030 nM

Compound: O=C(Cc1ccc2c(c1)B(O)OC2)NS(=O)(=O)C1CCCC1
- solubility [2]: 880 µg/mL (≈ 2.72 mM)
- EC50 ([1]; read-out: pEC50 (converted)): 15.1 nM

Compound: OB1OCc2ccc(Cc3nnn[nH]3)cc21
- half-life [6]: 3.67 h
- solubility [2]: > 1000 µg/mL
- bioavailability [7]: 24%
- EC50 ([1]; read-out: pEC50 (converted)): 9.12 nM
- Cmax [10]: 283 ng/mL
- AUC/dose [13]: 103 kg·ng·h/mL/mg

Compound: COc1cc2c(cc1C(=O)NS(=O)(=O)c1ccccc1)B(O)OC2
- EC50 [14]: > 31600 nM

Compound: Cc1ccc(NC(=O)c2cccn(Cc3ccccc3)c2=O)cc1B(O)O
- EC50 ([1]; read-out: pEC50 (converted)): > 31600 nM
- Activity [19]: inactive

Compound: CC(C)(C)OC(=O)NCc1ccc(S(=O)(=O)NC(=O)CCc2ccc3c(c2)B(O)OC3)cc1
- EC50 [14]: 912 nM

Compound: O=C(CCc1ccc2c(c1)B(O)OC2)NS(=O)(=O)c1ccccc1
- solubility [2]: > 1000 µg/mL
- EC50 ([1]; read-out: pEC50 (converted)): 832 nM

Compound: OB1OCc2ccc(Oc3nnn[nH]3)c(F)c21
- solubility [2]: > 1000 µg/mL
- EC50 ([1]; read-out: pEC50 (converted)): 724 nM

Compound: O=C(Nc1cccn(Cc2ccccc2)c1=O)c1ccc2c(c1F)B(O)OC2
- solubility [2]: 4 µg/mL (≈ 0.0106 mM)
- EC50 ([1]; read-out: pEC50 (converted)): 91.2 nM

Compound: O=C(NS(=O)(=O)c1ccc2c(c1)B(O)OC2)c1ccccc1
- solubility [2]: 980 µg/mL (≈ 3.09 mM)
- EC50 ([1]; read-out: pEC50 (converted)): 110 nM

Compound: OB1OCc2ccc(OCc3nnn[nH]3)cc21
- half-life [6]: 1.3 h
- solubility [2]: > 1000 µg/mL
- bioavailability [7]: 13%
- bioavailability [15]: 62%
- Cmax [16]: 4900 ng/mL
- EC50 ([1]; read-out: pEC50 (converted)): 275 nM
- Cmax [10]: 71 ng/mL
- half-life [17]: 3.54 h
- AUC/dose [18]: 184 kg·ng·h/mL/mg
- AUC/dose [13]: 38 kg·ng·h/mL/mg

Compound: O=C(Nc1cccc(B(O)O)c1)c1cccn(Cc2ccccc2)c1=O
- EC50 ([1]; read-out: pEC50 (converted)): > 31600 nM
- Activity [19]: inactive

Compound: O=C(Cc1ccc2c(c1)B(O)OC2)NS(=O)(=O)c1ccccc1
- half-life [6]: 7.29 h
- AUC/dose [20]: 2120 kg·ng·h/mL/mg
- solubility [2]: 900 µg/mL (≈ 2.72 mM)
- bioavailability [7]: 28%
- half-life [21]: 3.88 h
- bioavailability [22]: > 100%
- EC50 ([1]; read-out: pEC50 (converted)): 64.6 nM
- Cmax [23]: 53000 ng/mL
- Cmax [10]: 1290 ng/mL
- AUC/dose [13]: 560 kg·ng·h/mL/mg

Compound: CC(C)(c1ccc2c(c1)B(O)OC2)c1nnn[nH]1
- half-life [6]: 1.05 h
- solubility [2]: 930 µg/mL (≈ 3.81 mM)
- bioavailability [7]: 68%
- Cmax [8]: 3880 ng/mL
- EC50 ([1]; read-out: pEC50 (converted)): 26.3 nM
- AUC/dose [9]: 1049 kg·ng·h/mL/mg
- Cmax [10]: 1180 ng/mL
- half-life [11]: 1.53 h
- bioavailability [12]: > 100%
- AUC/dose [13]: 612 kg·ng·h/mL/mg

Compound: O=C(Nc1ccc2c(c1)B(O)OC2)c1cccn(Cc2ccccc2)c1=O
- half-life [6]: 4.5 h
- Cmax [24]: 792 ng/mL
- half-life [25]: 6.4 h
- bioavailability [7]: 27%
- AUC/dose [26]: 4210 kg·ng·h/mL/mg
- Vdss [27]: 1.7 L/kg
- Cmax [10]: 1420 ng/mL
- AUC/dose [13]: 1120 kg·ng·h/mL/mg

Compound: O=C(Nc1cccn(Cc2ccccc2)c1=O)c1cc2c(cc1F)COB2O
- EC50 ([1]; read-out: pEC50 (converted)): > 31600 nM

Now from value to molecule:

- EC50 ([1]; read-out: pEC50 (converted)): > 31600 nM
Compound: NC(=O)CNC(=O)c1ccc2c(c1)B(O)OC2

- half-life [6]: 16.6 h
- solubility [2]: > 1000 µg/mL
- bioavailability [7]: 83%
- Cmax [8]: 2710 ng/mL
- EC50 ([1]; read-out: EC50): 40 nM
- EC50 ([1]; read-out: pEC50 (converted)): 39.8 nM
- AUC/dose [9]: 283 kg·ng·h/mL/mg
- Cmax [10]: 1860 ng/mL
- half-life [11]: 3.03 h
- bioavailability [12]: 55%
- AUC/dose [13]: 429 kg·ng·h/mL/mg
Compound: C[C@@H](C(=O)O)c1ccc2c(c1)B(O)OC2

- solubility [2]: > 1000 µg/mL
- EC50 ([1]; read-out: pEC50 (converted)): 47.9 nM
Compound: CC(C(=O)O)c1ccc2c(c1)B(O)OC2 (racemic)

- solubility [2]: 510 µg/mL (≈ 2.1 mM)
- EC50 ([1]; read-out: pEC50 (converted)): 316 nM
Compound: O=C(O)c1ccn(-c2ccc3c(c2)B(O)OC3)c1

- solubility [2]: > 1000 µg/mL
- EC50 ([1]; read-out: pEC50 (converted)): 1070 nM
Compound: O=C(O)Cc1ccc2c(c1)B(O)OC2

- EC50 ([1]; read-out: pEC50 (converted)): > 31600 nM
Compound: NC(=O)c1ccc2c(c1)B(O)OC2

- EC50 ([1]; read-out: pEC50 (converted)): > 31600 nM
Compound: O=C(O)CNC(=O)c1ccc2c(c1)B(O)OC2

- half-life [6]: 1.14 h
- solubility [2]: 950 µg/mL (≈ 4.61 mM)
- bioavailability [7]: 88%
- bioavailability [15]: > 100%
- Cmax [16]: 47200 ng/mL
- EC50 ([1]; read-out: pEC50 (converted)): 871 nM
- Cmax [10]: 1730 ng/mL
- half-life [17]: 4.53 h
- AUC/dose [18]: 683 kg·ng·h/mL/mg
- AUC/dose [13]: 451 kg·ng·h/mL/mg
Compound: C[C@H](C(=O)O)c1ccc2c(c1)B(O)OC2

- solubility [2]: 850 µg/mL (≈ 3.86 mM)
- EC50 ([1]; read-out: pEC50 (converted)): 50.1 nM
Compound: CCC(C(=O)O)c1ccc2c(c1)B(O)OC2 (racemic)

- solubility [2]: > 1000 µg/mL
- EC50 ([1]; read-out: pEC50 (converted)): 646 nM
Compound: CC(C)C(C(=O)O)c1ccc2c(c1)B(O)OC2 (racemic)

- solubility [2]: > 1000 µg/mL
- EC50 ([1]; read-out: pEC50 (converted)): 11500 nM
Compound: O=C(O)c1cccn1-c1ccc2c(c1)B(O)OC2

- solubility [2]: > 1000 µg/mL
- EC50 ([1]; read-out: pEC50 (converted)): 26.9 nM
Compound: CC(C(=O)NS(=O)(=O)C1CC1)c1ccc2c(c1)B(O)OC2 (racemic)

- solubility [2]: > 1000 µg/mL
- EC50 ([1]; read-out: pEC50 (converted)): 1120 nM
Compound: O=C(O)CCc1ccc2c(c1)B(O)OC2

- solubility [2]: 950 µg/mL (≈ 5.34 mM)
- EC50 ([1]; read-out: pEC50 (converted)): 9330 nM
Compound: O=C(O)c1ccc2c(c1)B(O)OC2

- solubility [2]: > 1000 µg/mL
- EC50 ([1]; read-out: pEC50 (converted)): 115 nM
Compound: CC(C)(C(=O)O)c1ccc2c(c1)B(O)OC2
